Results published in the supplement of paper PMC8617591.

Experiments:
[1] = tested on: Mycobacterium tuberculosis Erdman (autoluminescent); test: total FIC50 (Loewe) at 50% inhibition, three-drug combination (log2); higher = more antagonistic
Procedure: (§1)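 DiaMOND equipotent three-drug combination dose responses (10 doses, 1.5- or 2-fold spacing, centred on IC90) against autoluminescent M. tuberculosis Erdman in 8 in vitro models. Read-out is OD600, or luminescence for the intracellular and dormancy models, normalised to untreated wells. Hill-fit Einf, AUC25 and GRinf are potency metrics; FIC50 and FIC90 are total Loewe fractional inhibitory concentrations as log2 (negative = synergy).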

[2] = tested on: Mycobacterium tuberculosis Erdman (autoluminescent); test: total FIC90 (Loewe) at 90% inhibition, three-drug combination (log2); higher = more antagonistic
Procedure: as §1

[3] = tested on: Mycobacterium tuberculosis Erdman (autoluminescent); test: Einf, fitted maximum growth inhibition of three-drug combination (fraction); higher = stronger maximal inhibition
Procedure: as §1

[4] = tested on: Mycobacterium tuberculosis Erdman (autoluminescent); test: AUC25, normalised area under dose response up to IC25 (three-drug combination) (fraction (0-1)); higher = more potent at low dose
Procedure: as §1

[5] = tested on: Mycobacterium tuberculosis Erdman (autoluminescent); test: GRinf, maximum normalised growth rate inhibition (three-drug combination) (unitless (-1 to 1)); higher = less effect (negative = killing)
Procedure: as §1

COc1nc2ccc(Br)cc2cc1[C@@H](c1ccccc1)[C@@](O)(CCN(C)C)c1cccc2ccccc12 [bedaquiline] + NNC(=O)c1ccncc1 [isoniazid] + CC(=O)NC[C@H]1CN(c2ccc(N3CCOCC3)c(F)c2)C(=O)O1 [linezolid]
Settings	AUC25, [4]	Einf, [3]	GRinf, [5]	total FIC50, [1]	total FIC90, [2]
in vitro model: acidic pH 5.7, time point: constant (~7 days, model-specific)	0.106	0.912	-0.504	0.42	–
in vitro model: acidic pH 5.7, time point: terminal (~4-5 doublings, model-specific)	0.099	0.977	-0.207	0.426	0.522
in vitro model: intracellular J774, time point: constant = terminal	–	0.898	-0.0256	–	0.82

Settings	AUC25, [4]	Einf, [3]	GRinf, [5]	total FIC50, [1]	total FIC90, [2]
in vitro model: butyrate, time point: constant (~7 days, model-specific)	0.0832	0.917	-0.00837	0.739	1.08
in vitro model: butyrate, time point: terminal (~4-5 doublings, model-specific)	0.0647	0.962	-0.0285	0.794	0.944
in vitro model: cholesterol 0.05 mM, time point: constant (~7 days, model-specific)	0.139	0.735	-0.291	0.27	–
in vitro model: cholesterol 0.05 mM, time point: terminal (~4-5 doublings, model-specific)	0.147	0.945	-0.463	4.34	0.413
in vitro model: cholesterol-high 0.2 mM, time point: constant (~7 days, model-specific)	0.114	0.955	-0.63	0.506	1.92
in vitro model: cholesterol-high 0.2 mM, time point: terminal (~4-5 doublings, model-specific)	0.0961	1	-0.702	0.549	0.793
in vitro model: dormancy (butyrate + nitrate, low O2), time point: constant (~7 days, model-specific)	0.0688	0.93	0.215	0.921	0.532
in vitro model: dormancy (butyrate + nitrate, low O2), time point: terminal (~4-5 doublings, model-specific)	0.0346	0.989	-0.127	0.777	0.255
in vitro model: standard 7H9 glycerol, time point: constant = terminal	0.0715	0.957	-0.0711	0.0514	-0.28
in vitro model: valerate, time point: constant (~7 days, model-specific)	0.107	0.928	-0.345	0.58	0.911
in vitro model: valerate, time point: terminal (~4-5 doublings, model-specific)	0.0588	0.959	-0.111	0.894	0.84

COc1nc2ccc(Br)cc2cc1[C@@H](c1ccccc1)[C@@](O)(CCN(C)C)c1cccc2ccccc12 [bedaquiline] + NNC(=O)c1ccncc1 [isoniazid] + CO[C@H]1/C=C/O[C@@]2(C)Oc3c(C)c(O)c4c(O)c(c(/C=N/N5CCN(C6CCCC6)CC5)c(O)c4c3C2=O)NC(=O)/C(C)=C\C=C\[C@H](C)[C@H](O)[C@@H](C)[C@@H](O)[C@@H](C)[C@H](OC(C)=O)[C@@H]1C [rifapentine]
Settings	AUC25, [4]	Einf, [3]	GRinf, [5]	total FIC50, [1]	total FIC90, [2]
in vitro model: acidic pH 5.7, time point: constant (~7 days, model-specific)	0.0986	0.958	-0.468	0.854	–
in vitro model: acidic pH 5.7, time point: terminal (~4-5 doublings, model-specific)	0.0903	0.998	-0.375	0.671	0.815
in vitro model: intracellular J774, time point: constant = terminal	–	0.92	-0.0955	–	0.118

Settings	AUC25, [4]	Einf, [3]	GRinf, [5]	total FIC50, [1]	total FIC90, [2]
in vitro model: butyrate, time point: constant (~7 days, model-specific)	0.0748	0.93	-0.0408	0.749	-0.0255
in vitro model: butyrate, time point: terminal (~4-5 doublings, model-specific)	0.0596	0.969	-0.0505	0.65	0.51
in vitro model: cholesterol 0.05 mM, time point: constant (~7 days, model-specific)	0.0859	0.689	-0.113	0.606	–
in vitro model: cholesterol 0.05 mM, time point: terminal (~4-5 doublings, model-specific)	0.0803	0.905	-0.101	0.573	0.195
in vitro model: cholesterol-high 0.2 mM, time point: constant (~7 days, model-specific)	0.0656	0.954	-0.564	0.787	–
in vitro model: cholesterol-high 0.2 mM, time point: terminal (~4-5 doublings, model-specific)	0.06	1	-0.621	0.962	0.847
in vitro model: dormancy (butyrate + nitrate, low O2), time point: constant (~7 days, model-specific)	0.0684	0.89	0.303	0.628	0.878
in vitro model: dormancy (butyrate + nitrate, low O2), time point: terminal (~4-5 doublings, model-specific)	0.0424	0.986	-0.0574	0.557	0.296
in vitro model: standard 7H9 glycerol, time point: constant = terminal	0.0599	0.942	-0.00945	0.229	-0.235
in vitro model: valerate, time point: constant (~7 days, model-specific)	0.0499	0.906	-0.146	0.867	–
in vitro model: valerate, time point: terminal (~4-5 doublings, model-specific)	0.0394	0.958	-0.122	1.05	1
